This is an account of results in PubChem BioAssay AID624254 (Broad Institute, 2012).

The structures appear in SMILES notation. Calls of active or inactive are those of the source. The rule behind the calls is not given here.

The target of the assay is V. cholerae BH1651 luxOD47E, luciferase light induction, 6 h. Kind of assay: Luciferase light induction in v cholerae bh1651, agonist dose response, confirmatory (AID 624254).
`CC(C)n1nnnc1SCC(=O)c1ccc2c(c1)OCCO2`: the AC50 is 845 nM.
To `C[C@H](CO)N1C[C@H](C)[C@@H](CN(C)S(=O)(=O)c2ccccc2)Oc2c(NC(=O)Nc3ccc(F)cc3)cccc2C1=O` belongs 1910 nM; to `NS(=O)(=O)c1ccc(NC(=O)NC2CCCCC2)cc1`, 2290 nM; to `Cc1ccc2nc(NCCc3ccccc3)c3nncn3c2c1`, 68.1 nM.
As to `CN(C(=O)Cn1cc(C(F)(F)F)cc(Cl)c1=O)C1CCS(=O)(=O)C1` (centres undefined), the AC50 is 1230 nM.
To `CC(C)Cn1c(CN2CCN(C)C(CCO)C2)nc2ccccc21` (centres undefined) belongs > 50000 nM (inactive).
As for `O=c1cc(CSc2ccccn2)c2ccccc2[nH]1`, the AC50 was 615 nM.
Consider `COc1ccc(NC(=O)Nc2cccc3c2O[C@H](CN(C)S(=O)(=O)c2ccccc2)[C@@H](C)CN([C@H](C)CO)C3=O)cc1`, for which the AC50 was 13200 nM.
To `C[C@H](CO)N1C[C@H](C)[C@@H](CN(C)S(=O)(=O)c2cccs2)Oc2c(NC(=O)Nc3ccc4c(c3)OCO4)cccc2C1=O` belongs 1180 nM; to `COc1ccc(S(=O)(=O)N2CCN(c3cnccn3)CC2)cc1`, 2580 nM; to `O=C(CCN1C(=O)c2ccccc2C1=O)N1CCN(C2c3ccccc3-c3ccccc32)CC1`, 209 nM.
For `Cc1ccc(-n2nnnc2SCC(=O)NCC2CCCO2)cc1C` (centres undefined), the AC50 is 33.6 nM.
Then `Cc1sc(N)nc1-c1ccc(Oc2ccccc2)cc1`, with 167 nM; and `C=C(C)COc1ccc(-c2ncncc2Oc2ccc(OC)cc2)c(O)c1`, with 632 nM.
For `C[C@H](CO)N1C[C@H](C)[C@@H](CN(C)S(=O)(=O)c2ccccc2)Oc2c(NC(=O)Nc3ccccc3)cccc2C1=O`, the AC50 is 6480 nM.
To `Cc1cc(Oc2ccc(C#N)cc2)nc(N2CCOCC2)n1` belongs 208 nM; to `C[C@H]1CN([C@@H](C)CO)C(=O)c2cccc(NC(=O)Nc3ccc4c(c3)OCO4)c2O[C@@H]1CN(C)S(=O)(=O)c1ccccc1`, 2250 nM.
Turning to `CC(=O)Nc1ccc(N2CCCC2)cc1`, the AC50 is > 50000 nM (inactive).
Then `COc1ccc(C)c2sc(N3CCCC3)nc12`, with 1520 nM; and `COc1cccc(OCC(=O)NC2CCCCC2)c1`, with 2430 nM; and `CCc1ccc(NS(=O)(=O)c2cccs2)cc1`, with 212 nM.
Then `O=C(CN1CCN(c2ccc(F)cc2)CC1)Nc1cc(C(F)(F)F)ccc1Cl`, with > 50000 nM (inactive).
With `Cc1ccc(Cn2c(SCC(C)C)nc3c2c(=O)[nH]c(=O)n3C)cc1`, the AC50 is 166 nM.
Consider `Cc1ccc(C)c(S(=O)(=O)N2CCN(C(=O)c3n[nH]c(=O)c4ccccc34)CC2)c1`, for which the AC50 is 2960 nM.
On to `CCOc1ccc(CNC(=O)c2ccco2)cc1`, for which the concentration at half-maximal activity (AC50) was 35600 nM.
On to `COc1ccc(N2CCN(C(=O)COc3ccc4ccccc4c3)CC2)cc1`, for which the AC50 was 35100 nM.
On to `Cc1noc(C)c1S(=O)(=O)N1CCCC(C(=O)NCCC2=CCCCC2)C1` (centres undefined), for which the AC50 was 2640 nM.
Then `Cc1cc(C)cc(NC(=O)Cn2ncn3c(cc4ccccc43)c2=O)c1`, with 7050 nM; and `Cc1noc(C)c1S(=O)(=O)Nc1ccc2c(c1)C(=O)N([C@H](C)CO)C[C@H](C)[C@@H](CN(C)Cc1ccc(C(=O)O)cc1)O2`, with 18800 nM; and `Cc1ccc(C(=O)OCC(=O)NCC(F)(F)F)cc1C`, with 2410 nM.
Then `CCC(C)n1cnc2c(=O)oc3ccccc3c21` (centres undefined), with 149 nM.
To `CCC(Oc1ccccc1)C(=O)Nc1ccc(-c2nnc(-c3ccco3)o2)cc1` (centres undefined) belongs > 50000 nM (inactive).
As for `Cn1c(Cn2cnc(Cl)c2Cl)nc2ccccc21`, the AC50 was 210 nM.
For the molecule `C[C@H](CO)N1C[C@H](C)[C@@H](CN(C)S(=O)(=O)c2ccccc2)Oc2c(NC(=O)Nc3ccc4c(c3)OCO4)cccc2C1=O`, the half-maximal activity concentration (AC50) was 1800 nM.
To `COc1ccc(Cl)cc1NC(=O)COC(=O)c1ccc(Br)o1` belongs 8880 nM.
Then `Cc1cc2oc(=O)cc(-c3ccccc3)c2c(C)c1-c1ccc(C#N)cc1`, with 3210 nM.
Take `O=C(NCc1ccco1)C1CCCN1S(=O)(=O)c1ccc2ccccc2c1` (centres undefined): the AC50 was > 50000 nM (inactive).
Then `O=C(c1ccc(C(=O)N2CCOCC2)nc1)N1CCOCC1`, with 183 nM; and `CCCS(=O)(=O)N1CCC(C(=O)N2CCN(C(=O)OCC)CC2)CC1`, with > 50000 nM (inactive).
Consider `CC(NC(=O)CN1CCN(c2ccccc2F)CC1)c1ccccc1` (centres undefined), for which the AC50 is > 50000 nM (inactive).
Then `CC(C)(C)Cc1nc(-c2ccccn2)no1`, with > 50000 nM (inactive).
Then `COc1cc(NC(=O)C2=C(C)OCCS2)c(Cl)cc1C(=O)NCCN(C)C`, with 463 nM; and `COC(=O)c1ccccc1NC(=O)Cn1cc2c(n1)CCC(C)C2` (centres undefined), with 1480 nM; and `CN(CC(=O)Nc1c(Cl)cccc1Cl)C(=O)c1n[nH]c2ccccc12`, with 38800 nM.
Then `COc1ccc(NC(=O)CCS(=O)(=O)c2ccc3c(c2)CCCN3C(C)=O)cc1Cl`, with 113 nM.
Regarding `CCC(NC(=O)Nc1nccs1)(C(F)(F)F)C(F)(F)F`, the AC50 is 734 nM.
As to `CCC(CC)c1nnc(NC(=O)COc2ccc3c(C)cc(=O)oc3c2)s1`, the AC50 is 99.8 nM.
On to `COCc1[nH]nc2c1C1(CCC3(CC1)OCCO3)C(C#N)=C(N)O2`, for which the AC50 is > 50000 nM (inactive).
For `CCOC(=O)c1cnc2nc(C(F)(F)F)[nH]n2c1=O`, the AC50 is 15700 nM.
